The text below walks through data of US12139492B2 (Endotarget Inc., priority 2021, dated 2024).

One test concerns JeKo-1 cells. As to the kind of experiment: Antiproliferative effect, MTS cell viability assay, JeKo-1 cells. The test is classed as cell-based. The settings on record: Homo sapiens; JeKo-1 mantle cell lymphoma cells; read-out: IC50 (anti-proliferation) JeKO-1 cells. The method, boiled down:
(§1)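 Steps: seed B-cell lymphoma line; add compound at 0, 0.001, 0.01, 0.1, 1 or 10 μM; incubate 72 h; add MTS and read reduced tetrazolium (formazan) absorbance at 490 nm.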
Background: Tetrazolium assays rely on reduction of a dye to a coloured formazan, in cell work by metabolically active cells.

Another test has as its system Mino cells. As to the kind of experiment: Antiproliferative effect, MTS cell viability assay, Mino cells. The test is classed as cell-based. The settings on record: Homo sapiens, Mino mantle cell lymphoma cells, read-out: IC50 (anti-proliferation) Mino cells. The method, boiled down: as §1
A further test deals with BTK (Homo sapiens, UniProt Q06187). As to the kind of experiment: Degradation of BTK protein in Namalwa cells (Western blot; DC50, Dmax). The settings on record: for DC50: read-out: DC50 (BTK degradation), concentration giving 50% reduction of BTK expression level, cell line not given; for Dmax: read-out: Dmax (BTK degradation). (A western blot detects proteins with antibodies after separation by electrophoresis.)

Structures are written as SMILES. Where two headings read alike, the source gives them in different places.

Sequence of BTK (Q06187 whole entry): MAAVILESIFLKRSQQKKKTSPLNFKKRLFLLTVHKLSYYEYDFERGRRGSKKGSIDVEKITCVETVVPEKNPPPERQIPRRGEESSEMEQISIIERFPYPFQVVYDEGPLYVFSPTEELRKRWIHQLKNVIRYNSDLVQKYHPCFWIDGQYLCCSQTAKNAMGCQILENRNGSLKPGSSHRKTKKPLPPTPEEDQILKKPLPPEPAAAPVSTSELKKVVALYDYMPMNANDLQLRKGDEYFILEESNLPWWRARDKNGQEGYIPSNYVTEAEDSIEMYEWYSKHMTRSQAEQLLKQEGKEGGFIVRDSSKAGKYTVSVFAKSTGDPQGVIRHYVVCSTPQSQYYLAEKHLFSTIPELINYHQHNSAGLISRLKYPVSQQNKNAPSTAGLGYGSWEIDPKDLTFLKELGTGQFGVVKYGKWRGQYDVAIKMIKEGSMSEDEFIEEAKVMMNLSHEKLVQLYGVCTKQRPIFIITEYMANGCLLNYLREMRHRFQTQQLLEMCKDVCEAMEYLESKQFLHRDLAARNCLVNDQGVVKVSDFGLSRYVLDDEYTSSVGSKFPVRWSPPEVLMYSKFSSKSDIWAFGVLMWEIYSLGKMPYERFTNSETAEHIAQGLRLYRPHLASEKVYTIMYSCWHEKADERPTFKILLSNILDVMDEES

A word on the DC50: it is the midpoint of the concentration-degradation curve. A word on the Dmax: it is the greatest extent of degradation seen. With `Nc1ncnc2c1c(-c1ccc(Oc3ccccc3)cc1)nn2C1CCN(CCN2CCC(CN3CCN(c4ccc5c(c4)C(=O)N(C4CCC(=O)NC4=O)C5=O)CC3)C2)CC1` (stereo not shown) [Compound 455, 5-(4-((1-(2-(4-(4-amino-3-(4-phenoxyphenyl)-1H-pyrazolo(3,4-d)pyrimidin-1-yl)piperidin-1-yl)ethyl)pyrrolidin-3-yl)methyl)piperazin-1-yl)-2-(2,6-dioxopiperidin-3-yl)isoindoline-1,3-dione], in the test with JeKo-1 cells, the IC50 is less than 1000 nM. Further, the IC50 with Mino cells was less than 1000 nM. Also, on BTK, the DC50 is less than 10 nM and the greatest degradation seen (Dmax) is more than 90%.
For the compound `Nc1ncnc2c1c(-c1ccc(Oc3ccccc3)cc1)nn2C1CCN(CCN2CCC(CN3CCN(c4ccc5c(c4)CN(C4CCC(=O)NC4=O)C5=O)CC3)C2)CC1` (stereo not shown) [Compound 456, 3-(5-(4-((1-(2-(4-(4-amino-3-(4-phenoxyphenyl)-1H-pyrazolo[3,4-d]pyrimidin-1-yl)piperidin-1-yl)ethyl)pyrrolidin-3-yl)methyl)piperazin-1-yl)-1-oxoisoindolin-2-yl)piperidine-2,6-dione], the IC50 with JeKo-1 cells is 1000 to 10000 nM. Moreover, the IC50 in the test with Mino cells (MINO) fell in the range of 1000 to 10000 nM. On BTK, the DC50 lay within 10 to 50 nM and the Dmax was more than 75%.
Take `Nc1ncnc2c1c(-c1ccc(Oc3ccccc3)cc1)nn2C1CCN(CCN2CCC(N3CCN(c4ccc5c(c4)C(=O)N(C4CCC(=O)NC4=O)C5=O)CC3)CC2)CC1` (stereo not shown) [Compound 457, 5-(4-(1-(2-(4-(4-amino-3-(4-phenoxyphenyl)-1H-pyrazolo(3,4-d)pyrimidin-1-vi)piperidin-1-yl)ethyl)piperidin-4-yl)piperazin-1-yl)-2-(2,6-dioxopiperidin-3-yl)isoindoline-1,3-dione]: the IC50 in the test on JeKo-1 cells is less than 1000 nM. Besides, in the test on Mino cells, the IC50 was less than 1000 nM. Further, at BTK, the DC50 was less than 10 nM and the Dmax is more than 90%.
As to `Nc1ncnc2c1c(-c1ccc(Oc3ccccc3)cc1)nn2C1CCN(CCN2CCC(N3CCN(c4ccc5c(c4)CN(C4CCC(=O)NC4=O)C5=O)CC3)CC2)CC1` (stereo not shown) [Compound 458, 3-(5-(4-(1-(2-(4-(4-amino-3-(4-phenoxyphenyl)-1H-pyrazolo[3,4-d]pyrimidin-1-yl)piperidin-1-yl)ethyl)piperidin-4-yl)piperazin-1-yl)-1-oxoisoindolin-2-yl)piperidine-2,6-dione], the IC50 in the test on JeKo-1 cells lay within 1000 to 10000 nM. The IC50 in the test on Mino cells (MINO) lay within 1000 to 10000 nM. For the same compound, at BTK, the DC50 was more than 50 nM and the Dmax was more than 50%.
For the compound `Nc1ncnc2c1c(-c1ccc(Oc3ccccc3)cc1)nn2C1CCN(CCN2CCC(N3CCN(c4ccc5c(c4)C(=O)N(C4CCC(=O)NC4=O)C5=O)CC3)C2)CC1` (stereo not shown) [Compound 459, 5-(4-(1-(2-(4-(4-amino-3-(4-phenoxyphenyl)-1H-pyrazolo(3,4-d)pyrimidin-1-yl)piperidin-1-yl)ethyl)pyrrolidin-3-yl)piperazin-1-yl)-2-(2,6-dioxopiperidin-3-yl)isoindoline-1,3-dione], the IC50 in the test on JeKo-1 cells and with Mino cells was less than 1000 nM in each case. Further, the DC50 at BTK is less than 10 nM. Further, the Dmax at BTK is more than 90%.
For the compound `Nc1ncnc2c1c(-c1ccc(Oc3ccccc3)cc1)nn2C1CCN(CCN2CCC(N3CCN(c4ccc5c(c4)CN(C4CCC(=O)NC4=O)C5=O)CC3)C2)CC1` (stereo not shown) [Compound 460, 3-(5-(4-(1-(2-(4-(4-amino-3-(4-phenoxyphenyl)-1H-pyrazolo[3,4-d]pyrimidin-1-yl)piperidin-1-yl)ethyl)pyrrolidin-3-yl)piperazin-1-yl)-1-oxoisoindolin-2-yl)piperidine-2,6-dione], the IC50 with JeKo-1 cells and in the test with Mino cells (MINO) was 1000 to 10000 nM each time. The DC50 at BTK was in the range of 10 to 50 nM. Further, at BTK, the greatest degradation seen (Dmax) was more than 75%.
As to `Nc1ncnc2c1c(-c1ccc(Oc3ccccc3)cc1)nn2C1CCN(CCN2CC(CN3CCN(c4ccc5c(c4)C(=O)N(C4CCC(=O)NC4=O)C5=O)CC3)C2)CC1` (stereo not shown) [Compound 461, 5-(4-((1-(2-(4-(4-amino-3-(4-phenoxyphenyl)-1H-pyrazolo[3,4-d]pyrimidin-1-yl)piperidin-1-yl)ethyl)azetidin-3-yl)methyl)piperazin-1-yl)-2-(2,6-dioxopiperidin-3-yl)isoindoline-1,3-dione], the IC50 with JeKo-1 cells and in the test on Mino cells (MINO) was less than 1000 nM in each case. Besides, the DC50 at BTK was less than 10 nM. The Dmax on BTK was more than 90%.
On to `Nc1ncnc2c1c(-c1ccc(Oc3ccccc3)cc1)nn2C1CCN(CCN2CC(CN3CCN(c4ccc5c(c4)CN(C4CCC(=O)NC4=O)C5=O)CC3)C2)CC1` (stereo not shown) [Compound 462, 3-(5-(4-((1-(2-(4-(4-amino-3-(4-phenoxyphenyl)-1H-pyrazolo[3,4-d]pyrimidin-1-yl)piperidin-1-yl)ethyl)azetidin-3-yl)methyl)piperazin-1-yl)-1-oxoisoindolin-2-yl)piperidine-2,6-dione], for which the IC50 with JeKo-1 cells and in the test on Mino cells (MINO) was 1000 to 10000 nM each time. Further, at BTK, the DC50 lay in the range of 10 to 50 nM. On BTK, the Dmax was more than 50%.
In the case of `Nc1ncnc2c1c(-c1ccc(Oc3ccccc3)cc1)nn2C1CCN(CCN2CC(N3CCN(c4ccc5c(c4)C(=O)N(C4CCC(=O)NC4=O)C5=O)CC3)C2)CC1` (stereo not shown) [Compound 463, 5-(4-(1-(2-(4-(4-amino-3-(4-phenoxyphenyl)-1H-pyrazolo[3,4-d]pyrimidin-1-yl)piperidin-1-yl)ethyl)azetidin-3-yl)piperazin-1-yl)-2-(2,6-dioxopiperidin-3-yl)isoindoline-1,3-dione], the IC50 with JeKo-1 cells is less than 1000 nM. Moreover, the IC50 in the test with Mino cells (MINO) was less than 1000 nM. Moreover, on BTK, the DC50 is 10 to 50 nM and the Dmax is more than 90%.
On to `Nc1ncnc2c1c(-c1ccc(Oc3ccccc3)cc1)cn2C1CCN(CCN2CC(N3CCN(c4ccc5c(c4)CN(C4CCC(=O)NC4=O)C5=O)CC3)C2)CC1` (stereo not shown) [Compound 464, 3-(5-(4-(1-(2-(4-(4-amino-5-(4-phenoxyphenyl)-7H-pyrrolo[2,3-d]pyrimidin-7-yl)piperidin-1-yl)ethyl)azetidin-3-yl)piperazin-1-yl)-1-oxoisoindolin-2-yl)piperidine-2,6-dione], for which, in the test with JeKo-1 cells, the IC50 was in the range of 1000 to 10000 nM. Moreover, the IC50 in the test on Mino cells (MINO) fell in the range of 1000 to 10000 nM. For the same compound, at BTK, the DC50 lay in the range of 10 to 50 nM and the greatest degradation seen (Dmax) is more than 75%.
As to `Nc1ncnc2c1c(-c1ccc(Oc3ccccc3)cc1)nn2C1CCN(CCN2CCN(CCSc3ccc4c(c3)C(=O)N(C3CCC(=O)NC3=O)C4=O)CC2)CC1` (stereo not shown) [Compound 465, 5-((2-(4-(2-(4-(4-amino-3-(4-phenoxyphenyl)-1H-pyrazolo(3,4-d)pyrimidin-1-yl)piperidin-1-yl)ethyl)piperazin-1-yl)ethyl)thio)-2-(2,6-dioxopiperidin-3-yl)isoindoline-1,3-dione], the IC50 in the test on JeKo-1 cells lay within 1000 to 10000 nM. Moreover, in the test on Mino cells (MINO), the IC50 lay within 1000 to 10000 nM. Moreover, at BTK, the DC50 lay within 10 to 50 nM and the Dmax was more than 90%.
On to `Nc1ncnc2c1c(-c1ccc(Oc3ccccc3)cc1)nn2C1CCN(CCN2CCN(CCSc3ccc4c(c3)CN(C3CCC(=O)NC3=O)C4=O)CC2)CC1` (stereo not shown) [Compound 466, 3-(5-((2-(4-(2-(4-(4-amino-3-(4-phenoxyphenyl)-1H-pyrazolo[3,4-d]pyrimidin-1-yl)piperidin-1-yl)ethyl)piperazin-1-yl)ethyl)thio)-1-oxoisoindolin-2-yl)piperidine-2,6-dione], for which the IC50 in the test on JeKo-1 cells and with Mino cells (MINO) was more than 10000 nM each time. Moreover, on BTK, the DC50 is more than 50 nM. The Dmax on BTK was more than 50%.
In the case of `Nc1ncnc2c1c(-c1ccc(Oc3ccccc3)cc1)nn2C1CCN(CCN2CCN(CCCSc3ccc4c(c3)C(=O)N(C3CCC(=O)NC3=O)C4=O)CC2)CC1` (stereo not shown) [Compound 467, 5-((3-(4-(2-(4-(4-amino-3-(4-phenoxyphenyl)-1H-pyrazolo[3,4-d]pyrimidin-1-yl)piperidin-1-yl)ethyl)piperazin-1-yl)propyl)thio)-2-(2,6-dioxopiperidin-3-yl)isoindoline-1,3-dione], the IC50 in the test on JeKo-1 cells and with Mino cells (MINO) was 1000 to 10000 nM throughout. On BTK, the DC50 is 10 to 50 nM. The Dmax at BTK was more than 90%.
For `Nc1ncnc2c1c(-c1ccc(Oc3ccccc3)cc1)nn2C1CCN(CCN2CCN(CCCSc3ccc4c(c3)CN(C3CCC(=O)NC3=O)C4=O)CC2)CC1` (stereo not shown) [Compound 468], the IC50 in the test on JeKo-1 cells lay in the range of 1000 to 10000 nM. For the same compound, the IC50 with Mino cells (MINO) was 1000 to 10000 nM. At BTK, the DC50 was less than 10 nM and the Dmax was more than 90%.
For `Nc1ncnc2c1c(-c1ccc(Oc3ccccc3)cc1)nn2C1CCN(CCN2CCC(CSc3ccc4c(c3)C(=O)N(C3CCC(=O)NC3=O)C4=O)CC2)CC1` (stereo not shown) [Compound 469, 5-(((1-(2-(4-(4-amino-3-(4-phenoxyphenyl)-1H-pyrazolo[3,4-d]pyrimidin-1-yl)piperidin-1-yl)ethyl)piperidin-4-yl)methyl)thio)-2-(2,6-dioxopiperidin-3-yl)isoindoline-1,3-dione], the IC50 with JeKo-1 cells was in the range of 1000 to 10000 nM. In addition, in the test with Mino cells (MINO), the IC50 was in the range of 1000 to 10000 nM. At BTK, the DC50 was less than 10 nM and the Dmax is more than 90%.
Regarding `Nc1ncnc2c1c(-c1ccc(Oc3ccccc3)cc1)nn2C1CCN(CCN2CCC(CSc3ccc4c(c3)CN(C3CCC(=O)NC3=O)C4=O)CC2)CC1` (stereo not shown) [Compound 470, 3-(5-(((1-(2-(4-(4-amino-3-(4-phenoxyphenyl)-1H-pyrazolo[3,4-d]pyrimidin-1-yl)piperidin-1-yl)ethyl)piperidin-4-yl)methyl)thio)-1-oxoisoindolin-2-yl)piperidine-2,6-dione], in the test with JeKo-1 cells, the IC50 fell in the range of 1000 to 10000 nM. Also, the IC50 in the test with Mino cells (MINO) was less than 1000 nM. At BTK, the DC50 is less than 10 nM and the Dmax was more than 90%.
